The target of data set [1] is T1, [3H]ifenprodil binding, adult rat forebrain membranes (NMDA receptor) (Rattus norvegicus, UniProt P35439+Q00960).
T1 construct: membrane fraction was prepared from frozen adult rat forebrains; tissue Zivic-Miller Laboratories, Inc; host or cells: adult rat forebrain, buffy coat membrane fraction
The experiment in a line: [3H]Ifenprodil binding assay. The settings on record: 4 nM [3H]-ifenprodil, 2 hours at room temperature, pH 7.4. As for the experimental part:
All buffers and reagents used in assay incubations or to dissolve drugs were prepared using water purified through a Milli-Q reverse osmosis system (Millipore Corp, Bedford, Mass.) and treated with UV emissions. Prior to use in the assays, buffers were further filtered through a sterile Corning filtration unit (Corning Glass Works, Corning, N.Y.) containing a 0.2-μm filter. Buffer used to rinse the membranes on the assay filters was prepared with purified water, but was not refiltered and was stored no longer than 5 days. Stock solutions of the drugs (usually 10 mM) were dissolved in 20 mM HEPES-KOH buffer pH 7.4 (assay buffer) with the addition of 1 to 5 μL of glacial AcOH, if needed, to keep them in solution. For eliprodil the stock solution was buffer with the addition of 10% DMSO. All subsequent dilutions from stock were made in buffer.
An extensively washed buffy coat membrane fraction was prepared from frozen adult rat forebrains (Zivic-Miller Laboratories, Inc, Zelienople, Pa.) as described previously (Coughenour L. L.; Cordon, J. J., J. Pharmacol. Exp. Ther., 1997;280:584-592) and stored at −80° C. On the day of the assay, pellets were resuspended in 35 mL of assay buffer at pH 7.4 using a Polytron setting 6. After incubation at 37° C. for 30 minutes in a shaking water bath, the homogenate was centrifuged 40,000×g for 10 minutes at 4° C. The pellets were resuspended in fresh buffer and centrifuged 3 more times before final suspension for use in the assay.
[^3H]Ifenprodil Binding. […] The filter mat was supported on a cold (−20° C.) teflon support, and filters from individual wells were separated and placed in Mini Poly-Q vials (Beckman Instruments Inc, Fullerton, Calif.) and filled with 4 mL of scintillation cocktail (Beckman Ready Protein^+). Radioactivity retained on the filter was determined by liquid scintillation spectrophotometry. […]
Data Analysis. Binding curves were statistically analyzed for a best one- or two-site competition fit using GraphPad Prism software (GraphPad Software Inc, San Diego, Calif.). […]

Data set [2] has as its target T2, NR1A/NR2B (Rattus norvegicus, UniProt P35439+Q00960).
T2 construct: expressed in transfected cells; host or cells: Xenopus laevis oocytes injected with cRNA
Put plainly: Electrophysiological assay at NMDA receptor subunits expressed in Xenopus oocytes (two-electrode voltage clamp). Format: cell-based. The settings on record: cloned rat NR1A/NR2B in Xenopus oocytes; currents activated by glutamate (100 μM) and glycine (1-100 μM); read-out: NR1A/NR2B Oocyte IC50. The text has this:
Preparation of RNA. cDNA clones encoding the NR1A, NR2A, NR2B, and NR2C rat NMDA receptor subtypes were used. (See Moriyoshi et al., Nature, (Lond.), 1991;354:31-37); Kutsuwada et al., Nature (Lond.), 1992;358:36-41; Monyer et al., Science (Washington, D.C.), 1992;256:1217-1221; Ikeda et al., FEBS Lett., 1992;313:34-38; Ishii et al., J. Biol. Chem., 1993;268:2836-2843 for details of these clones or their mouse homologs.) The clones were transformed into appropriate host bacteria, and plasmid preparations were made with conventional DNA purification techniques. A sample of each clone was linearized by restriction enzyme digestion […] was synthesized with T3 RNA polymerase. The cRNA was diluted to 400 ng/μL and stored in 1-μL aliquots at −80° C. until injection.
The Xenopus Oocyte Expression System. […]
Electrical recordings were made using a conventional two-electrode voltage clamp (Dagan TEV-200) over periods ranging between 3 to 21 days following injection (Woodward et al., Mol. Pharmacol., 1992;41:89-103). […] Inhibitory potency of the novel antagonists was assessed on responses elicited by fixed concentrations of glutamate and glycine, by measuring reductions in current induced by progressively increasing concentrations of antagonist. […]

Where a name gives a salt, the structure may show the parent alone.

T1 sequence (Q00960 27-1482, other chains not shown): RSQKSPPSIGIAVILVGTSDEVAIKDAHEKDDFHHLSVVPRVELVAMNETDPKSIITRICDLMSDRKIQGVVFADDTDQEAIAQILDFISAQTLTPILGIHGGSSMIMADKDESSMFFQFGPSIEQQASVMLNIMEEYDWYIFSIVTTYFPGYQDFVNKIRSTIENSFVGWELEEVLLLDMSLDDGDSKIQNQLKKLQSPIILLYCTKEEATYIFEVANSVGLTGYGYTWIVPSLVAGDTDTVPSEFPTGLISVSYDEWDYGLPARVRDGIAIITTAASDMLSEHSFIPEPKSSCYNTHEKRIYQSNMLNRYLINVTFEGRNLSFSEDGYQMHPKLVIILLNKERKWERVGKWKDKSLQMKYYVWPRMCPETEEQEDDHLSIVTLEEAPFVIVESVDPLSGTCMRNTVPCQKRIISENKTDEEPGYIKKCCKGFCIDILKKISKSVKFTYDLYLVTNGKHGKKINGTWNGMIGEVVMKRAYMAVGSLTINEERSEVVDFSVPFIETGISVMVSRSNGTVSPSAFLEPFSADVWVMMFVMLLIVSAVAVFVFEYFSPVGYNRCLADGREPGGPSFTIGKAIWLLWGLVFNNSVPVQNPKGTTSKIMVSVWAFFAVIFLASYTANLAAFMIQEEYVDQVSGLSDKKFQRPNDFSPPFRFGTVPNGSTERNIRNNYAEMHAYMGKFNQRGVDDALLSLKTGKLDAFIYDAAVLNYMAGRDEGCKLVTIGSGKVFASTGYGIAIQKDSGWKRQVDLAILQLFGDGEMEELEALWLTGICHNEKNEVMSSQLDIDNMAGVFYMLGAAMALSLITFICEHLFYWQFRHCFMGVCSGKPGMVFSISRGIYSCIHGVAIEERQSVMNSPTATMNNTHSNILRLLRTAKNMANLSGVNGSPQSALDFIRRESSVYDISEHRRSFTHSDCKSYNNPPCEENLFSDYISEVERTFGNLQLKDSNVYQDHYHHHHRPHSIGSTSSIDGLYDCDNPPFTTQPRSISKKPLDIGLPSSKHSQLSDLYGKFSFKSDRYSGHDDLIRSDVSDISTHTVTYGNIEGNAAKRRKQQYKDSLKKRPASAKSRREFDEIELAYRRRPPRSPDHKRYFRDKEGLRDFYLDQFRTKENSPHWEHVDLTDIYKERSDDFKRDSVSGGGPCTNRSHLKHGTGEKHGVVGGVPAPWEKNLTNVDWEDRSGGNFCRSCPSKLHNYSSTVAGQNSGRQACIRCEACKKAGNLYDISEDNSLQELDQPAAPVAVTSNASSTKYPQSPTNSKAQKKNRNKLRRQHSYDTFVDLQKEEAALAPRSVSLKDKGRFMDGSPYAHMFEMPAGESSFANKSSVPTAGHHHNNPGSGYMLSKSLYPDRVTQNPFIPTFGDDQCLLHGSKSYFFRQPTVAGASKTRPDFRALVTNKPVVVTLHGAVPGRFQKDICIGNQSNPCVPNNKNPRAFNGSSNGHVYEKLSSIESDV
T2 sequence (Q00960 27-1482, other chains not shown): as above

The compound `CN(CCCc1ccc(O)cc1)[C@H]1CC[C@H](c2ccccc2)CC1` (as salt: HCl) [Example 4, trans-4-{3-[Methyl-(4-phenylcyclohexyl)amino]propyl}phenol] showed a melting point of 249 to 255 °C. Compound `Oc1ccc(CCN[C@H]2CC[C@H](c3ccccc3)CC2)cc1` (as salt: HCl) [Example 5, trans-4-[2-(4-Phenylcyclohexylamino)ethyl]phenol] had a melting point of 238 to 241 °C. On the same count and under the same terms, the value for `CN(CCc1ccc(O)cc1)[C@H]1CC[C@H](c2ccccc2)CC1` (as salt: HCl) [Example 6, trans 4-{2-[Methyl(4-phenylcyclohexyl)amino]ethyl}phenol] was 97 to 105 °C. The compound `Oc1ccc(CCCN[C@H]2CC[C@H](c3ccccc3)CC2)cc1` [Example 1b, trans4-[3-(4-Phenylcyclohexylamino)propyl]phenol] came in with a melting point of 211 to 214 °C. The same compound returned an IC50 in data set [1] of 84 nM.

`C[C@H](N[C@H]1CC[C@H](c2ccccc2)CC1)[C@@H](O)c1ccc(O)cc1` [Example 2a, trans 4-[(1S,2S)-1-Hydroxy-2-(4-phenylcyclohexylamino)propyl]phenol] displayed an IC50 in data set [1] of 1300 nM.

With `C[C@H](N[C@H]1CC[C@@H](c2ccccc2)CC1)[C@@H](O)c1ccc(O)cc1` [Example 2b, cis-4-[(1S,2S)-1-Hydroxy-2-(4-phenylcyclohexylamino)propyl]phenol], the IC50 in data set [2] came to 150 nM; in data set [1], 45 nM.
